Source: PMC4149570 (PLoS ONE, 2014)
Values joined by “and” are separate entries in the source; they are usually repeats but may differ in a detail not shown here. Equal entries are not always repeated. “Also recorded” adds a separate entry of the source. Where two headings read alike, the source gives them in different places.

Experiments:
Y. pestis MEP synthase [1] = target: T1, Y. pestis MEP synthase (Yersinia pestis, UniProt Q8ZH62); conditions: for IC50: read-out: IC50 (dose-response, Figure 9)
T1 sequence (Q8ZH62 whole entry, looked up): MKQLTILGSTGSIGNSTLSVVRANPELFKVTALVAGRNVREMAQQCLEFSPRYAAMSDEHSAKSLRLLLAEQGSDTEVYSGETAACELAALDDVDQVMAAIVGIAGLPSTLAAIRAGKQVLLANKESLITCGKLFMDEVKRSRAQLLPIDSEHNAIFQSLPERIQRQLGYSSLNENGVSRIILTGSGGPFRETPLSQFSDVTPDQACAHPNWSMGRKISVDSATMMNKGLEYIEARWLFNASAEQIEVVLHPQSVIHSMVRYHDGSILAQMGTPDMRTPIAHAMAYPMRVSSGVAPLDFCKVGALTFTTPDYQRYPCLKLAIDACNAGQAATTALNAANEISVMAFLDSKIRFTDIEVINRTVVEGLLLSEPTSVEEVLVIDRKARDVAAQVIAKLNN

Y. pestis subsp. A1122 = assay: microbe, parasite or virus in culture; assay type: cell-based, Yersinia pestis; conditions: for IC50: read-out: IC50 of Y. pestis growth (fractional growth, OD600)
Y. pestis MEP synthase [2] = target: T1, Y. pestis MEP synthase; assay: biochemical; conditions: for inhibition at 100 µM: read-out: inhibition of enzymatic activity (rational library screen)
[3] = target: Synechocytis sp PCC6803 MEP synthase; conditions: cited from earlier work
E.coli MEP synthase = conditions: cited from earlier work
MEP synthase = conditions: cited from earlier work
F. tularensis = conditions: read-out: activity of fosmidomycin with F. tularensis (half maximal growth inhibition); cited from earlier work
[4] = tested on: F. tularensis MEP synthase; conditions: cited from earlier work
[5] = Yersinia pestis, SUBSP.A1122, 24 h
[6] = IC50 (enzyme preincubated with inhibitor, Figure 10)

CC(C)=CCC/C(C)=C/COP(=O)(O)OP(=O)(O)O [GPP, geranyl pyrophosphate]
inhibition of Y. pestis MEP synthase (feedback inhibition test) (Y. pestis MEP synthase [1]): No enzyme inhibition was observed

CC(C)=CCOP(=O)(O)OP(=O)(O)O [DMAPP, dimethylallyl pyrophosphate]
inhibition of Y. pestis MEP synthase (feedback inhibition test) (Y. pestis MEP synthase [1]): No enzyme inhibition was observed

CC1(C)S[C@@H]2[C@H](NC(=O)[C@H](N)c3ccccc3)C(=O)N2[C@H]1C(=O)O [ampicillin, reference compound]
IC50 (Y. pestis subsp. A1122; [5]): 10.8 µM and 3.8 µg/mL

CC(=O)N(CCCP(=O)(O)O)OCc1ccc(-c2ccccc2)cc1 [compound 13]
inhibition at 100 µM (Y. pestis MEP synthase [2]): > 75% | IC50 (Y. pestis MEP synthase [1]): 5110 nM

O=CN(O)CCCP(=O)(O)O [fosmidomycin]
Ki ([3]; read-out: Ki fos): 4 nM | IC50 (E.coli MEP synthase; read-out: IC50 fos): 35 nM | Ki (E.coli MEP synthase; read-out: Ki fos): 21 to 215 nM | mode of inhibition with respect to the binding of NADPH (MEP synthase): uncompetitive | Ki (Y. pestis MEP synthase [2]): 968 nM | IC50 (Y. pestis MEP synthase [2]; IC50 fos): 710 nM | IC50 (F. tularensis): 12100 nM | IC50 ([4]; read-out: IC50 fos): 247 nM | Ki ([4]; read-out: Ki fos): 98.9 ± 4.5 nM

C[C@@]1(CO)OP(=O)(O)OP(=O)(O)OC[C@H]1O [compound 15]
IC50 (Y. pestis MEP synthase [2]; IC50 (dose-response, Figure 9)): 4110 nM | IC50 (Y. pestis MEP synthase [2]; [6]): 1190 nM | inhibition at 100 µM (Y. pestis MEP synthase [2]): > 75% | growth inhibitory activity towards Y. pestis liquid culture (Y. pestis subsp. A1122): comparable to FR900098; also recorded: relatively poor inhibitory activity | improvement of IC50 on preincubation with inhibitor (Y. pestis MEP synthase [1]): approximately 3 fold

CC(=O)N(O)CCCP(=O)(O)O [FR900098, reference compound]
Ki ([3]; read-out: Ki FR900098): 2 nM | IC50 (E.coli MEP synthase; read-out: IC50 FR900098): 35 nM | mode of inhibition relative to DXP (MEP synthase): competitive | mode of inhibition with respect to the binding of NADPH (MEP synthase): uncompetitive | Ki (Y. pestis MEP synthase [2]): 170 ± 7.1 nM | IC50 (Y. pestis MEP synthase [2]; IC50 FR900098): 231 nM | IC50 (Y. pestis subsp. A1122; [5]): 29 µM and 6.4 µg/mL | IC50 (Y. pestis subsp. A1122): 29300 nM | IC50 ([4]; read-out: IC50 FR900098): 230 nM | mode of inhibition with respect to DXP (Y. pestis MEP synthase [1]): competitive | mode of inhibition with respect to NADPH (Y. pestis MEP synthase [1]): uncompetitive

CC(=O)N(CCCP(=O)(OCOC(=O)C(C)(C)C)OCOC(=O)C(C)(C)C)OCc1ccc(C(C)C)cc1 [compound 52]
growth inhibitory activity towards Y. pestis liquid culture (Y. pestis subsp. A1122): comparable to FR900098; also recorded: relatively poor inhibitory activity

C/C(=C\COP(=O)(O)OP(=O)(O)O)CO [compound 16]
IC50 (Y. pestis MEP synthase [2]; IC50 (dose-response, Figure 9)): 4150 nM | IC50 (Y. pestis MEP synthase [2]; [6]): 335 nM | inhibition at 100 µM (Y. pestis MEP synthase [2]): > 75% | growth inhibitory activity towards Y. pestis liquid culture (Y. pestis subsp. A1122): comparable to FR900098; also recorded: relatively poor inhibitory activity | improvement of IC50 on preincubation with inhibitor (Y. pestis MEP synthase [1]): ~12 fold | mode of inhibition with respect to DXP (Y. pestis MEP synthase [1]): competitive | mode of inhibition with respect to NADPH (Y. pestis MEP synthase [1]): competitive

C=C(C)CCO[P@@](=O)(O)OP(=O)(O)O [IPP, isopentenyl pyrophosphate]
inhibition of Y. pestis MEP synthase (feedback inhibition test) (Y. pestis MEP synthase [1]): No enzyme inhibition was observed

O=C(c1ccc2ccccc2c1)N(O)CCCP(=O)(O)O [compound 48]
inhibition at 100 µM (Y. pestis MEP synthase [2]): > 75% | IC50 (Y. pestis MEP synthase [1]): 9530 nM

Cc1ccc(C(=O)N(O)CCCP(=O)(O)O)cc1 [compound 42]
inhibition at 100 µM (Y. pestis MEP synthase [2]): > 75% | IC50 (Y. pestis MEP synthase [1]): 10800 nM

CCOP(=O)(CCCN(OCc1ccc(C(C)C)cc1)C(C)=O)OCC [compound 51]
growth inhibitory activity towards Y. pestis liquid culture (Y. pestis subsp. A1122): comparable to FR900098; also recorded: relatively poor inhibitory activity
